Reference: patent publication US9980943B2, “Methods of treating muscular dystrophy” (BOARD OF REGENTS OF THE NEVADA SYSTEM OF HIGHER EDUCATION, …, priority 2013, dated 2018)

Assays:
Type in all cases: cell-based, mouse
[1] = tested on: α7 integrin (LacZ reporter in α7βgal+/− myoblasts); experiment: Myoblast α7+/LacZ integrin FDG assay (Burkin assay in myoblasts, 96-well); conditions: α7+/LacZ myoblasts, 96-well
[2] = tested on: α7 integrin (LacZ reporter in α7+/LacZ myotubes); experiment: Myotube α7 integrin FDG assay (Burkin assay in myotubes, 96-well); conditions: myotubes
[3] = tested on: β-galactosidase in CMV-LacZ C2C12 myoblasts; experiment: CMV-LacZ secondary screen in C2C12 myoblasts (β-Gal stabilizing assay); conditions: CMV-LacZ C2C12 myoblasts
Method in brief: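 C2C12 myoblasts stably carrying a linearized CMV-driven LacZ construct, clone chosen by β-gal level in the myoblast FDG assay. Compounds tested in 96-well dose-response at 0.5, 1, 5, 10, 20 and 40 μM, N=2 replicates per point, to detect β-gal stabilization.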

[4] = tested on: β-galactosidase in CMV-LacZ C2C12 myotubes; experiment: CMV-LacZ secondary screen in C2C12 myotubes (β-Gal stabilizing assay); conditions: C2C12 CMV-LacZ myotubes, fold relative to DMSO
Method in brief: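 First, C2C12 myoblasts were transfected with a linearized CMV-LACZ vector and clonal lines selected by FDG β-gal assay. Then cells were exposed to compounds at 0.5, 1, 5, 10, 20 and 40 μM in 96-well format, two replicates each, and β-gal measured.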

Row | Structure (SMILES) | Burkin Assay in Myoblasts, signal relative to DMSO ([1]; 0.5 uM) | Burkin Assay in Myoblasts, signal relative to DMSO ([1]; 1 uM) | Burkin Assay in Myoblasts, signal relative to DMSO ([1]; 5 uM) | Burkin Assay in Myoblasts, signal relative to DMSO ([1]; 10 uM) | Burkin Assay in Myoblasts, signal relative to DMSO ([1]; 20 uM) | Burkin Assay in Myoblasts, signal relative to DMSO ([1]; 40 uM) | Burkin Assay in Myotubes, α7 integrin LacZ reporter signal relative to DMSO ([2]; 0.5 uM) | Burkin Assay in Myotubes, α7 integrin LacZ reporter signal relative to DMSO ([2]; 1 uM) | Burkin Assay in Myotubes, α7 integrin LacZ reporter signal relative to DMSO ([2]; 5 uM) | Burkin Assay in Myotubes, α7 integrin LacZ reporter signal relative to DMSO ([2]; 10 uM) | Burkin Assay in Myotubes, α7 integrin LacZ reporter signal relative to DMSO ([2]; 20 uM) | Burkin Assay in Myotubes, α7 integrin LacZ reporter signal relative to DMSO ([2]; 40 uM) | CMV-LACZ in Myoblasts (β-galactosidase activity relative to DMSO) ([3]; 0.5 uM) | CMV-LACZ in Myoblasts (β-galactosidase activity relative to DMSO) ([3]; 1 uM) | CMV-LACZ in Myoblasts (β-galactosidase activity relative to DMSO) ([3]; 5 uM) | CMV-LACZ in Myoblasts (β-galactosidase activity relative to DMSO) ([3]; 10 uM) | CMV-LACZ in Myoblasts (β-galactosidase activity relative to DMSO) ([3]; 20 uM) | CMV-LACZ in Myoblasts (β-galactosidase activity relative to DMSO) ([3]; 40 uM) | CMV-LACZ in Myotubes, signal relative to DMSO ([4]; 0.5 uM) | CMV-LACZ in Myotubes, signal relative to DMSO ([4]; 1 uM) | further results
1 | Cc1cccc(C)c1NCC(=O)N1CCN(Cc2ccccc2)CC1.Cl [MLS001176153-01] | 1.06 | 1.045 | 0.9185 | 0.8767 | 1.145 | 1.12 | 1.007 | 1.027 | 0.9538 | 1.106 | 0.9238 | 0.9818 | 1.2729 | 1.4588 | 0.8976 | 0.9140 | 0.9322 | 1.0763 | 0.8316 | 0.9832 | CMV-LACZ in Myotubes, signal relative to DMSO ([4]; 5 uM): 0.7944; CMV-LACZ in Myotubes, signal relative to DMSO ([4]; 10 uM): 0.9388; CMV-LACZ in Myotubes, signal relative to DMSO ([4]; 20 uM): 1.0256; CMV-LACZ in Myotubes, signal relative to DMSO ([4]; 40 uM): 1.0878
2 | COC(=O)Cn1c(=O)c2c(nc3n2CC(C)CN3Cc2ccccc2)n(C)c1=O (stereo not drawn) [MLS001166758-01] | 0.824 | 0.7394 | 0.9736 | 0.8245 | 0.7275 | 0.6174 | 1.0327 | 1.027 | 0.9857 | 0.8979 | 0.9856 | 0.8754 | 0.9357 | 1.0175 | 1.1998 | 1.0661 | 0.6126 | 0.3481 | 0.9958 | 0.7474 | CMV-LACZ in Myotubes, signal relative to DMSO ([4]; 5 uM): 0.9780; CMV-LACZ in Myotubes, signal relative to DMSO ([4]; 10 uM): 0.9444; CMV-LACZ in Myotubes, signal relative to DMSO ([4]; 20 uM): 1.1044; CMV-LACZ in Myotubes, signal relative to DMSO ([4]; 40 uM): 0.9867
3 | COc1ccc(C(=O)Cn2nnc(-c3ccccc3NC(=O)c3ccco3)n2)cc1 [MLS000072290-01] | 1.405 | 1.196 | 0.7334 | 0.6517 | 0.3984 | 0.2238 | 1.109 | 1.121 | 0.9096 | 0.8405 | 0.475 | 0.1784 | 1.0579 | 0.9000 | 1.4390 | 1.3303 | 0.3911 | 0.2915 | 0.9362 | 1.1495 | CMV-LACZ in Myotubes, signal relative to DMSO ([4]; 5 uM): 1.3265; CMV-LACZ in Myotubes, signal relative to DMSO ([4]; 10 uM): 1.1459; CMV-LACZ in Myotubes, signal relative to DMSO ([4]; 20 uM): 1.3484; CMV-LACZ in Myotubes, signal relative to DMSO ([4]; 40 uM): 1.0653
4 | Cc1ccsc1-c1n[nH]c(=S)n1C1CCCCC1 [MLS000698617-01] | 1.008 | 1.003 | 1.06 | 0.9317 | 0.8462 | 0.8966 | 1.197 | 1.075 | 1.139 | 0.945 | 1.092 | 0.7963 | 1.3409 | 0.9852 | 1.1399 | 1.0603 | 1.1670 | 1.0356 | 1.1221 | 1.0842 | CMV-LACZ in Myotubes, signal relative to DMSO ([4]; 5 uM): 0.9014; CMV-LACZ in Myotubes, signal relative to DMSO ([4]; 10 uM): 0.9614; CMV-LACZ in Myotubes, signal relative to DMSO ([4]; 20 uM): 1.0011; CMV-LACZ in Myotubes, signal relative to DMSO ([4]; 40 uM): 1.0111
5 | COc1cccc(CN2CCN(Cc3ccco3)CC2)c1.O=C(O)C(=O)O [MLS001211139-01] | 1.2392 | 1.136 | 1.065 | 0.9683 | 1.218 | 1.216 | 1.167 | 1.288 | 1.003 | 0.9425 | 0.8283 | 0.7547 | 0.9691 | 0.7347 | 0.9500 | 0.8608 | 1.0659 | 0.8744 | 0.9281 | 0.8948 | CMV-LACZ in Myotubes, signal relative to DMSO ([4]; 5 uM): 1.1755; CMV-LACZ in Myotubes, signal relative to DMSO ([4]; 10 uM): 1.0196; CMV-LACZ in Myotubes, signal relative to DMSO ([4]; 20 uM): 0.8259; CMV-LACZ in Myotubes, signal relative to DMSO ([4]; 40 uM): 1.0224
6 | O=C(NCCc1ccccc1)C1CCC(=O)N1C1CCCC1 (stereo not drawn) [MLS001200665-01] | 0.8982 | 0.8539 | 1.003 | 1.245 | 1.143 | 1.029 | 1.031 | 0.8461 | 1.091 | 1.126 | 0.8365 | 0.8877 | 1.1043 | 0.9783 | 0.9398 | 1.0036 | 0.7152 | 0.9937 | 1.1543 | 0.9695 | CMV-LACZ in Myotubes, signal relative to DMSO ([4]; 5 uM): 1.1274; CMV-LACZ in Myotubes, signal relative to DMSO ([4]; 10 uM): 0.9662; CMV-LACZ in Myotubes, signal relative to DMSO ([4]; 20 uM): 1.1800; CMV-LACZ in Myotubes, signal relative to DMSO ([4]; 40 uM): 1.2706
